Data on ten molecules can be found in US11447466B2, “Substituted indole compounds useful as inhibitors of TLR7/8/9” (BRISTOL-MYERS SQUIBB COMPANY, priority 2017, dated 2022).

Holding throughout (format): cell-based
One assay has as its target T1, human TLR9 (Homo sapiens, UniProt Q9NR96).
T1 construct: host or cells: HEK-Blue cells
T1 sequence (Q9NR96 26-1032): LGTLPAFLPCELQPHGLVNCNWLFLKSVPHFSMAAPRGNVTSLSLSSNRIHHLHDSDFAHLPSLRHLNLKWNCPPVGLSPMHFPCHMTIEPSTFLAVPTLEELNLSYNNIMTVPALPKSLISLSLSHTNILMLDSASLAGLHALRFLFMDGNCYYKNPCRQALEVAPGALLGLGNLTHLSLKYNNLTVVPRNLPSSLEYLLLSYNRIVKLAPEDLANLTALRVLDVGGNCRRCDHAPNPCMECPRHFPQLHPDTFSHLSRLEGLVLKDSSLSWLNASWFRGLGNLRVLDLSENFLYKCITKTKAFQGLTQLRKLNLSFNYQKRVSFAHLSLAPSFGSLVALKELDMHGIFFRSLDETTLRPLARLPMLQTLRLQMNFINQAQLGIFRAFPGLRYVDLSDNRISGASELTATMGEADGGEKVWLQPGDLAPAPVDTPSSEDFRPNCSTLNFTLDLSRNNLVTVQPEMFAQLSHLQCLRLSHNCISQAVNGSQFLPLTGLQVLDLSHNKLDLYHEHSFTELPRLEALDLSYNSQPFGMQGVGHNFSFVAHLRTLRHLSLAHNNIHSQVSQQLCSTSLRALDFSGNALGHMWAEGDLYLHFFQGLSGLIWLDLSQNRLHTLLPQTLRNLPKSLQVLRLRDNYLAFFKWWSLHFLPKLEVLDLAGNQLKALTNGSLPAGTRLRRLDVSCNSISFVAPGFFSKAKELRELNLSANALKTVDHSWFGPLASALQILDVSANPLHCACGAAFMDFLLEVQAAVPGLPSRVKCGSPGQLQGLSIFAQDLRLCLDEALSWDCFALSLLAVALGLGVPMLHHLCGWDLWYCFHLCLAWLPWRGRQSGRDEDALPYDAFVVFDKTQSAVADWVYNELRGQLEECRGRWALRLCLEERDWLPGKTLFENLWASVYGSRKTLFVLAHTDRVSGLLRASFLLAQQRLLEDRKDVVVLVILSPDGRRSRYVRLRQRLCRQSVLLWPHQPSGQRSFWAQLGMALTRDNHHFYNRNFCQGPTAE
Briefly: TLR9 inhibition reporter assay (HEK-Blue SEAP reporter, ODN2006 stimulation). Conditions: HEK-Blue cells overexpressing human TLR9, SEAP reporter, ODN2006 5 nM, 22 hour incubation. The essentials: (§1)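 HEK-Blue cells overexpressing human TLR7, TLR8 or TLR9 carry a SEAP reporter driven by NF-κB/AP-1 sites. Compounds (0.05 nM–50 μM) were preincubated 30 min at room temperature, then cells were stimulated with gardiquimod 7.5 μM (TLR7), R848 15.9 μM (TLR8) or ODN2006 5 nM (TLR9) for 22 h at 37 °C.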
Background: A reporter such as luciferase makes a cellular process visible.

Another assay has as its target T2, human TLR8 (Homo sapiens, UniProt Q9NR97).
T2 construct: host or cells: HEK-Blue cells
T2 sequence (Q9NR97 27-1041): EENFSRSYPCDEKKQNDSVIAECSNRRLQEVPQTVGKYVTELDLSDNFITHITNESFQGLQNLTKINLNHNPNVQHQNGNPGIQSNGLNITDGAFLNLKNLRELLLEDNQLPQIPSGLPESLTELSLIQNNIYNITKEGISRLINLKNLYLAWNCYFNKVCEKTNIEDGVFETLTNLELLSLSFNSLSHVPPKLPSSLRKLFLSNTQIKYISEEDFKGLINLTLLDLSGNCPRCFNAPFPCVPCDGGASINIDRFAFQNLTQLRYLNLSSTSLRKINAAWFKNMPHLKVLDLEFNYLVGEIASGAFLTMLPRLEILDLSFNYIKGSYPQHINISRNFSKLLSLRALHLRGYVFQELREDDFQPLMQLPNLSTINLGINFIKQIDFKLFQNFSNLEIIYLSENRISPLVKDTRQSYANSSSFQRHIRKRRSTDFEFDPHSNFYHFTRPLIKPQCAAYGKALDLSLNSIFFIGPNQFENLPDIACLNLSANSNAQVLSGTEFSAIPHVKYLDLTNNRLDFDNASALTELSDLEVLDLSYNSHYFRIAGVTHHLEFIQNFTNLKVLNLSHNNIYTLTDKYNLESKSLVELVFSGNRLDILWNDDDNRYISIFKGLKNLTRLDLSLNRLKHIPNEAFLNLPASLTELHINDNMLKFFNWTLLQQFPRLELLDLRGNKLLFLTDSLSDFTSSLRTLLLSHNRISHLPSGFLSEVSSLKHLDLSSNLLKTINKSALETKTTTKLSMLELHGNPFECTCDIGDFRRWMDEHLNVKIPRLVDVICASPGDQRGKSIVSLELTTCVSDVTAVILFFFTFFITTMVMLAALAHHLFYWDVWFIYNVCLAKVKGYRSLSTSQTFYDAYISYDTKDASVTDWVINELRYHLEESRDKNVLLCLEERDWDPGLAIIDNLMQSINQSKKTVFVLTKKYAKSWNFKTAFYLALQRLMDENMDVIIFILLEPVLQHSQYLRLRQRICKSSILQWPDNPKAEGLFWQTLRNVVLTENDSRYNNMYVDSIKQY
Briefly: TLR8 inhibition reporter assay (HEK-Blue SEAP reporter, R848 stimulation). Conditions: HEK-Blue cells overexpressing human TLR8, SEAP reporter, R848 15.9 μM, 22 hour incubation. A digest of the protocol: as §1

Another assay deals with T3, human TLR7 (Homo sapiens, UniProt Q9NYK1).
T3 construct: host or cells: HEK-Blue cells
T3 sequence (Q9NYK1 27-1049): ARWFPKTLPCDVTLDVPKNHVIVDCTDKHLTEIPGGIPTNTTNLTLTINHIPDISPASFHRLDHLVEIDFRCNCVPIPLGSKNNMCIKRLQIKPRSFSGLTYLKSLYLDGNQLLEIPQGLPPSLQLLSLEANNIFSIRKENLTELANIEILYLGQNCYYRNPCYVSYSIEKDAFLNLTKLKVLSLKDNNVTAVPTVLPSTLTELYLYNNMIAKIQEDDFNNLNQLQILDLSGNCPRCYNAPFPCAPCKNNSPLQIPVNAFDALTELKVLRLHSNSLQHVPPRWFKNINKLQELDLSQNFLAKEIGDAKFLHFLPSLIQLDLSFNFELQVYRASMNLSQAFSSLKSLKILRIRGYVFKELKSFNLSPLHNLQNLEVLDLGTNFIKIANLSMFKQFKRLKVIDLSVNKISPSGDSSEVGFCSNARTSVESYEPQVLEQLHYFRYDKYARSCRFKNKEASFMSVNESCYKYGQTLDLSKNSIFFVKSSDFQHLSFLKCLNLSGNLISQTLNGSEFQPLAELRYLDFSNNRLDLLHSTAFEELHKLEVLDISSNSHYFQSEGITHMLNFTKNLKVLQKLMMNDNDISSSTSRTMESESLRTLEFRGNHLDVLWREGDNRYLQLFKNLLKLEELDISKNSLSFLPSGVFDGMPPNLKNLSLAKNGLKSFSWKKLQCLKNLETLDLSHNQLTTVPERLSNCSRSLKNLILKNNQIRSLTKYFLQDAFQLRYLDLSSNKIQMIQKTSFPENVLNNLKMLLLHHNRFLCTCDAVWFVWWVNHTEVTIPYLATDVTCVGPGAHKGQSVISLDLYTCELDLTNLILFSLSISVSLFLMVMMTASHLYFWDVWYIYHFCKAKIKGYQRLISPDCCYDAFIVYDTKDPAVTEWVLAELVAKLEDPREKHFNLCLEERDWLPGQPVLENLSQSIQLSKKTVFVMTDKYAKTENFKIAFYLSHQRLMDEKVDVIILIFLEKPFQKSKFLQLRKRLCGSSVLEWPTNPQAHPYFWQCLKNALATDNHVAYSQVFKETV
Briefly: TLR7 inhibition reporter assay (HEK-Blue SEAP reporter, gardiquimod stimulation). Conditions: HEK-Blue cells overexpressing human TLR7, SEAP reporter, gardiquimod 7.5 μM, 22 hour incubation. The essentials:
as §1

What is called IC50 is the concentration that inhibits the measured activity by half. With `CC(C)c1c(-c2cc(Cl)c(=O)n(C)c2)[nH]c2ccc(C3CCN(C4CCOCC4)CC3)cc12` [Example 226, 3-chloro-5-(3-isopropyl-5-(1-(tetrahydro-2H-pyran-4-yl)piperidin-4-yl)-1H-indol-2-yl)-1-methylpyridin-2(1H)-one], the values for the half-inhibitory concentration (IC50) at human TLR9, on human TLR8 and on human TLR7 were 10.4 µM, 0.007 µM and 0.0038 µM, respectively.

Regarding `CC(C)c1c(-c2cc(C#N)c(=O)n(C)c2)[nH]c2ccc(C3CCNCC3)cc12` [Example 47, 5-(3-isopropyl-5-(piperidin-4-yl)-1H-indol-2-yl)-1-methyl-2-oxo-1,2-dihydropyridine-3-carbonitrile], the IC50 on human TLR9 came to 1.89 µM; on human TLR8 it was 0.0411 µM; against human TLR7, 0.0319 µM.

With `CNCCN1CCC(c2ccc3[nH]c(-c4cc(C)c(=O)n(C)c4)c(C(C)C)c3c2)CC1` [Example 176, 5-(3-isopropyl-5-(1-(2-(methylamino)ethyl)piperidin-4-yl)-1H-indol-2-yl)-1,3-dimethylpyridin-2(1H)-one], the IC50 against human TLR9 stood at 0.177 µM; on human TLR8 it was 0.0013 µM; on human TLR7, 0.0013 µM.

As for `Cc1cc(-c2[nH]c3ccc(C4CCN(CC(C)(C)O)CC4)cc3c2C(C)C)c(C)n(C)c1=O` [Example 316, 5-(5-(1-(2-hydroxy-2-methylpropyl)piperidin-4-yl)-3-isopropyl-1H-indol-2-yl)-1,3,6-trimethylpyridin-2(1H)-one], the IC50 on human TLR9 is 3.09 µM; against human TLR8, 0.0019 µM; at human TLR7 it was 0.0102 µM.

Turning to `CC(C)c1c(-c2cc(CO)c(=O)n(C)c2)[nH]c2ccc(C3CCNCC3)cc12` [Example 70, 3-(hydroxymethyl)-5-(3-isopropyl-5-(piperidin-4-yl)-1H-indol-2-yl)-1-methylpyridin-2(1H)-one], the results for the IC50 against human TLR9, on human TLR8 and on human TLR7 were 2.45 µM, 0.0261 µM and 0.0086 µM, respectively.

`Cc1cc(-c2[nH]c3ccc(C4CCN(CCCO)CC4)cc3c2C(C)C)cn(C)c1=O` [Example 85, 5-(5-(1-(3-hydroxypropyl)piperidin-4-yl)-3-isopropyl-1H-indol-2-yl)-1,3-dimethylpyridin-2(1H)-one]: the half-maximal inhibitory concentration (IC50) came out at 8.45 µM against human TLR9, 0.0046 µM on human TLR8 and 0.0022 µM against human TLR7.

In the case of `Cc1cc(-c2[nH]c3ccc(C4CCN(CCC(N)=O)CC4)cc3c2C(C)C)cn(C)c1=O` [Example 82, 3-(4-(2-(1,5-dimethyl-6-oxo-1,6-dihydropyridin-3-yl)-3-isopropyl-1H-indol-5-yl)piperidin-1-yl)propanamide], the half-inhibitory concentration (IC50) on human TLR9 turned out to be 0.799 µM; against human TLR8, 0.0119 µM; on human TLR7, 0.0095 µM.

Turning to `CCCN1CCC(c2ccc3[nH]c(-c4cc(-c5cncnc5)c(=O)n(C)c4)c(C(C)C)c3c2F)CC1` [Example 258, 5-(4-fluoro-3-isopropyl-5-(1-propylpiperidin-4-yl)-1H-indol-2-yl)-1-methyl-3-(pyrimidin-5-yl)pyridin-2(1H)-one], the concentration for half-maximal inhibition (IC50) on human TLR9 is 0.832 µM; at human TLR8, 0.0011 µM; on human TLR7 it was 0.0045 µM.

Turning to `CCCN1CCC(c2ccc3[nH]c(-c4cc(-c5cnc(C6CC6)nc5)c(=O)n(C)c4)c(C(C)C)c3c2)CC1` [Example 338, 3-(2-cyclopropylpyrimidin-5-yl)-5-(3-isopropyl-5-(1-propylpiperidin-4-yl)-1H-indol-2-yl)-1-methylpyridin-2(1H)-one], the values for the IC50 against human TLR9, at human TLR8 and against human TLR7 were 0.772 µM, 0.0135 µM and 0.0011 µM, respectively.

On to `Cc1cc(-c2[nH]c3ccc(C4CCNCC4)cc3c2C(C)C)nn(C)c1=O` [Example 11, 6-(3-isopropyl-5-(piperidin-4-yl)-1H-indol-2-yl)-2,4-dimethylpyridazin-3(2H)-one], for which the half-inhibitory concentration (IC50) on human TLR9 worked out at 4.85 µM; at human TLR8 it was 0.0033 µM; against human TLR7 it was 0.0053 µM.
